Laboratory results published in publication PMC12305873, “Chlorinated biscoumarins inhibit chikungunya virus replication in cell-based and animal models” (Emerging Microbes & Infections, 2025).
Entries after “also recorded” stand apart in the source; their conditions may differ.

Assays:
[1] = system: CHIKV; test: In vivo anti-CHIKV efficacy, CHIKV-induced arthritis mouse model
[2] = system: CHIKV; test: CHIKV plaque assay in HEK 293 cells; settings: Chikungunya virus, HEK293, read-out: EC50, CHIKV inhibition
[3] = Pharmacokinetic study in mice
[4] = system: CHIKV replicon; test: CHIKV replicon inhibition assay (Renilla luciferase) in BHK-21 cells; settings: Chikungunya virus, BHK-21, 24 h, read-out: EC50, CHIKV replicon inhibition (printed IC50 in Figure 2g,h and b75)
[5] = system: CHIKV; test: Cell-based anti-attachment assay in Vero cells; settings: 10 µM
[6] = system: Sprague Dawley rats; test: ALT and Cr levels in rat plasma samples of the PK study; settings: single oral 250 mg/kg, plasma at 24, 48, 72 h
[7] = biological target: CHIKV nsP1 (Chikungunya virus, UniProt Q8JUX6); test: MTase-Glo methyltransferase assay; settings: At 50 µM (method: 100 µM), purified CHIKV nsP1
[8] = system: C57BL/6 mice; test: Multiple-dose toxicity in mice
[9] = system: CHIKV; test: CHIKV plaque assay in Vero cells; settings: Chikungunya virus, read-out: EC50, CHIKV inhibition
[10] = Pharmacokinetic study in rats
[11] = Cytotoxicity assay alongside the replicon assay; settings: hamster
[12] = system: CHIKV; test: Time-of-addition and time-of-removal assay in Vero cells; settings: 10 µM, MOI 1
[13] = system: C57BL/6 mice; test: Single-dose acute oral toxicity in mice
[14] = system: dengue virus NS5 methyltransferase (MTase); design: method as in Loeanurit et al., under review; settings: targeting the SAM binding site; ref Loeanurit et al., under review; cited from earlier work
[15] = compounds single oral 250 mg/kg, ribavirin 50 mg/kg BID IP
[16] = C57BL/6, mouse, in vivo, po, 250 mg/kg
[17] = mice, oral 250 mg/kg, mean ± SD
[18] = compound 3 250 mg/kg oral BID 3 days, ribavirin 50 mg/kg BID I.P.
[19] = Sprague Dawley, rat, in vivo, po, 250 mg/kg
[20] = rat, oral 250 mg/kg, mean ± SD, 250 mg/kg
[21] = single oral dose 250 or 500 mg/kg

Sequence of CHIKV nsP1 (Q8JUX6 1-535): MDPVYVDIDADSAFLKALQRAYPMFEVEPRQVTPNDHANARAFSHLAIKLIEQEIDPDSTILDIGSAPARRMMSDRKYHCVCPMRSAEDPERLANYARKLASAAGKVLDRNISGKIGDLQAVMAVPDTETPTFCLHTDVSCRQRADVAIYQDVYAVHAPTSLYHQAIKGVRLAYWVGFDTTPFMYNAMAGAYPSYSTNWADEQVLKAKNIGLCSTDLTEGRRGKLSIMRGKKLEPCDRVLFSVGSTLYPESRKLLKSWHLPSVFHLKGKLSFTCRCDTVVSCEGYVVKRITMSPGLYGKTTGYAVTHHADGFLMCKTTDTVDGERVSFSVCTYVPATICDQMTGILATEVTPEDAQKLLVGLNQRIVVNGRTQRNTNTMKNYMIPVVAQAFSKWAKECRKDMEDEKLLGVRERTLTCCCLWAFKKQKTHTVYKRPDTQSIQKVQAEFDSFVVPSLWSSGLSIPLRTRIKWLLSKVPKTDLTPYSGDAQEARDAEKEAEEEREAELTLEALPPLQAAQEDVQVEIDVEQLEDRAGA

O=c1oc2ccccc2c(O)c1C(c1cccc(Cl)c1)c1c(O)c2ccccc2oc1=O [compound 3, 3,3′-((3-chlorophenyl)methylene)bis(4-hydroxy-2H-chromen-2-one)]
Body weight ([1]; CHIKV-infected mice, single oral 250 mg/kg): greater body weight loss than other groups | PMN infiltration in footpad (H&E), day 1 [1, 15]: reduced PMN infiltration on day 1 | PMN infiltration in footpad (H&E), days 2 and 3 [1, 15]: PMN infiltration persisting at moderate levels | CHIKV titres in footpad tissues, plaque assay, day 2 post-infection ([1]; single oral 250 mg/kg): significantly reduced CHIKV titres in footpad tissues | Footpad swelling, tissue viral loads and systemic viremia (discussion summary) ([1]; single oral 250 mg/kg): significantly reduced footpad swelling, viral loads in infected tissues, and systemic viremia | Infectious viral titres in footpad tissue, plaque titration, day 3 ([1]; single oral 250 mg/kg): maintaining efficacy through day 3 howbeit not significantly | Systemic viremia (plasma CHIKV titres, plaque assay) ([1]; single oral 250 mg/kg): no marked reduction in systemic viremia | Viral RNA levels in footpad tissue (RT-qPCR) ([1]; single oral 250 mg/kg): marked reduction by day 3 | Foot swelling and activity vs vehicle group ([1]; single oral 250 mg/kg at 24 h after infection, transient, not significantly different from vehicle): moderate improvement in foot swelling and activity | EC50 [2]: 3.08 ± 0.45 µM | AUC [3, 16]: 909 µg·h/mL | AUC(0-inf) [3, 16]: 909 ± 835 µg·h/mL | AUC(0-t) [3, 16]: 909 ± 835 µg·h/mL | CL/F [3, 16]: 18.3 mL/min/kg | MRT inf [3, 16]: 10.6 ± 0.728 h | MRT last [3, 16]: 10.5 ± 0.646 h | Tmax [3, 16]: 10 ± 3.46 h | Cmax ([3]; C57BL/6, mouse, in vivo, po, 250 mg/kg, Cmax, mice, oral 250 mg/kg, mean ± SD): 68.9 ± 64.1 µg/mL | half-life ([3]; C57BL/6, mouse, in vivo, po, 250 mg/kg, HL (half-life), mice, oral 250 mg/kg, mean ± SD): 4.16 h | Cmax ([3]; C57BL/6, mouse, in vivo, po, 250 mg/kg, Peak plasma concentration (Cmax), mice, oral 250 mg/kg): 68.9 µg/mL | Time within which plasma concentration fell below EC90 and EC50 ([3]; mice, oral 250 mg/kg): 24 to 48 h | AUC_% Extrap_obs [3, 17]: 0.124 ± 0.185% | Vz_F_obs [3, 17]: 7.963 ± 11.841 L/kg | HL (half-life) ([3]; mice, oral 250 mg/kg, mean ± SD, 250 mg/kg): 4.163 ± 0.941 h | EC50 [4]: 6.64 ± 0.86 µM | CHIKV inhibition, post-incubation or throughout ([5]; Vero, MOI 0.1, 24 hpi): robust antiviral activity was observed | CHIKV inhibition, pre-treatment, pre-incubation or co-incubation ([5]; Vero, MOI 0.1, 24 hpi): Neither compound exhibited significant inhibition | Effect of compound pre-treatment on viral replication ([5]; cells treated 1 h before virus): enhanced the viral replication | ALT and Cr levels [6]: within normal limits | nsP1 methyltransferase enzymatic activity vs DMSO control [7]: significantly inhibited enzymatic activity | Serum ALT by day 3 vs vehicle and ribavirin groups ([8]; 250 mg/kg oral BID for 3 days): markedly elevated | Activity scores / behaviour [8, 18]: activity scores increased by day 2 | Creatinine [8, 18]: remained within normal limits | Histopathology of liver tissues [8, 18]: hepatocellular vacuolization and mononuclear infiltration | Histopathology of renal tissues [8, 18]: proximal tubular edema and vacuolization | EC50 [9]: 2.85 ± 0.42 µM | AUC [10, 19]: 1090 µg·h/mL | AUC(0-inf) [10, 19]: 1100 ± 633 µg·h/mL | AUC(0-t) [10, 19]: 1090 ± 646 µg·h/mL | CL/F [10, 19]: 5.65 mL/min/kg | MRT inf [10, 19]: 14.5 ± 5.73 h | MRT last [10, 19]: 12.9 ± 5.73 h | Cmax ([10]; Sprague Dawley, rat, in vivo, po, 250 mg/kg, Cmax, oral 250 mg/kg, mean ± SD): 80.7 ± 39.9 µg/mL | half-life ([10]; Sprague Dawley, rat, in vivo, po, 250 mg/kg, HL (half-life), oral 250 mg/kg, mean ± SD): 7.92 h | Cmax ([10]; Sprague Dawley, rat, in vivo, po, 250 mg/kg, Peak plasma concentration (Cmax), rats, oral 250 mg/kg): 80.7 µg/mL | Tmax ([10]; Sprague Dawley, rat, in vivo, po, 250 mg/kg, Tmax, oral 250 mg/kg, mean ± SD): 9.33 h | AUC_% Extrap_obs ([10]; rat, oral 250 mg/kg, mean ± SD): 2.128 ± 3.659% | Vz_F_obs ([10]; rat, oral 250 mg/kg, mean ± SD): 5.672 ± 8.054 L/kg | HL (half-life) [10, 20]: 7.922 ± 6.558 h | Tmax [10, 20]: 9.333 ± 2.309 h | Time within which plasma concentration fell below EC90 and EC50 ([10]; rats, oral 250 mg/kg): 24 to 48 h | CC50 [11]: 100.5 ± 0.11 µM | Time-of-addition time-points significantly different from DMSO control [12]: 3–9 hpi | Viral replication in time-of-removal (TOR) assay [12]: viral replication resumed upon compound removal at 12 hpi | Viral titres in time-of-addition (TOA) assay [12]: significantly reduced viral titres when added up to 9 hpi; also recorded: persisted when added as late as 12 hours post-infection | Serum ALT on day 1 ([13]; single oral dose 500 mg/kg, not statistically significant, resolved): slight increase | Activity scores [13, 21]: no significant difference in activity scores | Kidney histology [13, 21]: remained within normal limits | Liver (ALT) and kidney (creatinine) biomarkers ([13]; single oral dose 250 or 500 mg/kg, days 1, 3, 7): remained within normal limits | Survival and clinical signs over 7 days ([13]; single oral dose 250 or 500 mg/kg, mice): All animals survived | Liver histology ([13]; single oral dose, day 1, also seen in vehicle-treated animals): Mild, transient hepatocellular vacuolization | Tolerability of a single oral dose ([13]; up to 500 mg/kg, mice): well tolerated | Inhibition of dengue virus NS5 methyltransferase [14]: inhibitors of the dengue virus NS5 methyltransferase (MTase)
